Test results as given in patent US20050182129A1, “Hair growth tonic” (priority 2002, published 2005).

What was measured:
Format in all cases: cell-based
[1] = system: Human dermal papilla cells; experiment: Dermal papilla cell growth promoting activity (WST-1, spheroid culture), Test Example 5; details: for activity at 1 µM / activity at 4 µM / activity at 16 µM: Homo sapiens, Human dermal papilla cell, 72 hours, average of 3 wells, read-out: ΔO.D. 450 nm/620 nm (% of control); for growth promoting activity on dermal papilla cells: at 1 μM; for growth of dermal papilla cells: no concentration stated
Experimental: (§1) Human dermal papilla cells, which were purchased from Toyobo, were cultured in MEM (Invitrogen) containing 12% FBS.
The dermal papilla cells in passage 5 were sowed in a 96-well plate for spheroid culture to give a density of 1.5×10^4 cells/well and cultured overnight. Then, the medium was replaced by a medium to which no compound was added or a medium containing the compound and the culture was continued for additional 72 hours. After the completion of the culture, cells were counted by using a Cell Counting Kit (Wako Pure Chemicals). Five hours before the completion of the culture, WST-1 reagent at 1/10 amount per medium was added to each medium and then the optical density (O.D. 450 nm/620 nm) of the medium was measured at the completion of the culture. A positive correlation was observed between the cell number and optical density within the range of 0.25 to 4×10^4 cells/well.
In this table, each numerical value means an average of 6 wells (control group) or 3 wells (test groups). To compare the control group to the test groups, Student's t-test was employed: • *:P<0.05, **:P<0.01, ***:P<0.001.

[2] = system: WNT-5A mRNA; experiment: Activity of decreasing WNT-5A mRNA amount (QuantiGene bDNA method), Test Example 4; details: human dermal papilla cells; for IC50: concentration at which the mRNA amount is halved, average of 2 wells
Experimental: as §1
(§2) The dermal papilla cells in passage 5 were sowed in a 96-well plate to give a density of 1×10^4 cells/well and cultured overnight. Then, the medium was replaced by a medium to which no compound was added or a medium containing the compounds and the culture was continued for additional 24 hours. After the completion of the culture, WNT-5A or GAPDH mRNA amount was measured by using QuantiGene High Volume Kit (Bayer Medical) by the branched DNA (bDNA) signal amplification method (Drug Metabolism and Disposition, 28(5), 608-616 (2000)). In accordance with the protocol attached to QuantiGene High Volume Kit, cells were lysed by using Lysis Mixture and the lysis solution was added to capture plate. Next, a set of probes specific to WNT-5A or GPDH was added and allowed to react at 53° C. for 20 hours. After washing the plate by using 0.1×SSC containing 0.03% lauryl sulfate, an amplification probe comprising bDNA was added and allowed to react at 46° C. for 1 hour. After washing the plate, a labeling probe labeled with alkaline phosphatase was added and allowed to react at 46° C. for 1 hour. After washing the plate, a substrate Lumi-Phos Plus was added and allowed to react at 46° C. for 30 minutes. Then, the luminescence was measured by using WALLAC 1420ARVOsx.
The WNT-5A-specific probe set was designed based on the sequence of the coding region of human WNT-5A mRNA. As capture extenders (CEs), 10 probes (SEQ ID NOs:12 to 21) were used; as label extenders (LEs), 31 probes (SEQ ID NOs:22 to 52) were employed; and as blockers, […] (SEQ ID NOs:53 to 60) were employed.
(§3) The amounts of WNT-5A and GAPDH mRNAs are expressed in relative values (%) to the control case of adding of no compound and the concentration of a compound at which the mRNA amount is halved (IC50) is calculated as an index of WNT-5A mRNA decreasing activity of the corresponding compound.

[3] = system: GAPDH mRNA; experiment: GAPDH mRNA amount (QuantiGene bDNA method), Test Example 4; details: Human dermal papilla cell; human dermal papilla cells, 24 hours, concentration at which the mRNA amount is halved, average of 2 wells
Experimental: as §1, §2
As GAPDH-specific probe set, use was made of bDNA probe set for human GAPDH (XenoTech LLC, B0960).
as §3

[4] = Homo sapiens, Human dermal papilla cell, 24 h

C[C@@H]1C[C@@H]2O[C@H]2/C=C\C=C\C(=O)Cc2c(Cl)c(OCC(=O)Sc3ccccc3)cc(OCC(=O)Sc3ccccc3)c2C(=O)O1 [Compound 52]
activity at 1 µM [1]: 124.5 ± 1%
activity at 4 µM [1]: 143 ± 9.5%
activity at 16 µM [1]: 197 ± 5.4%
growth promoting activity on dermal papilla cells [1]: significant growth promoting activity
growth of dermal papilla cells [1]: promote the growth
WNT-5A mRNA amount / expression in dermal papilla cells [2]: effectively inhibit
IC50 [3]: 13.5 µM

C[C@@H]1C[C@@H]2O[C@H]2/C=C\C=C\C(=NO)Cc2c(Cl)c(O)cc(O)c2C(=O)O1 [Compound 35]
activity at 1 µM [1]: 161 ± 3.5%
activity at 4 µM [1]: 182 ± 3.7%
activity at 16 µM [1]: 159 ± 18.3%
growth promoting activity on dermal papilla cells [1]: significant growth promoting activity
IC50 [3]: 4.29 µM

CC(=O)Oc1cc(OC(C)=O)c2c(c1Cl)CC(=O)/C=C/C=C\[C@@H]1O[C@H]1C[C@@H](C)OC2=O [Compound 2]
activity at 1 µM [1]: 143 ± 10.1%
activity at 4 µM [1]: 167 ± 8.5%
activity at 16 µM [1]: 241 ± 25.3%
growth promoting activity on dermal papilla cells [1]: significant growth promoting activity
IC50 [3]: 26.4 µM

C[C@@H]1C[C@@H]2O[C@H]2/C=C\C=C\C(=O)Cc2c(Cl)c(OC3OC(CO)C(O)C3O)cc(O)c2C(=O)O1 (stereo partly shown) [Compound 76]
activity at 1 µM [1]: 80 ± 5.6%
activity at 4 µM [1]: 77.1 ± 7%
activity at 16 µM [1]: 121 ± 6.3%
IC50 [2, 4]: 8.56 µM
IC50 [3]: 55.9 µM

CC1CC2OC2CC(O)CCC(=O)Cc2c(Cl)c(O)cc(O)c2C(=O)O1 (stereo not shown) [Compound 73]
activity at 1 µM [1]: 91.7 ± 5.7%
activity at 4 µM [1]: 81.2 ± 7.8%
activity at 16 µM [1]: 206 ± 9.2%
IC50 [2, 4]: 9.37 µM
IC50 [3]: > 120 µM

CC1CC2OC2CC2=CC=C(Cc3c(Cl)c(O)cc(O)c3C(=O)O1)O2 (stereo not shown) [Compound 77]
activity at 1 µM [1]: 81.6 ± 4.4%
activity at 4 µM [1]: 86.3 ± 5%
activity at 16 µM [1]: 181 ± 21.7%
growth of dermal papilla cells [1]: promote the growth
IC50 [2, 4]: 8.13 µM
WNT-5A mRNA amount / expression in dermal papilla cells [2]: effectively inhibit
IC50 [3]: > 120 µM

C[C@@H]1CC2OC2C/C=C\C[C@H](O)Cc2c(Cl)c(O)cc(O)c2C(=O)O1 (stereo partly shown) [Compound 38]
activity at 1 µM [1]: 104 ± 2.6%
activity at 4 µM [1]: 89.6 ± 7.3%
activity at 16 µM [1]: 125 ± 5.1%
IC50 [2, 4]: 6.42 µM
IC50 [3]: > 120 µM

C[C@@H]1C[C@@H]2O[C@H]2/C=C\C=C\C(=O)Cc2c(Cl)c(OC(=O)c3cccnc3)cc(OC(=O)c3cccnc3)c2C(=O)O1 [Compound 58]
activity at 1 µM [1]: 123 ± 1.8%
activity at 4 µM [1]: 150 ± 9.4%
activity at 16 µM [1]: 217 ± 14.5%
growth promoting activity on dermal papilla cells [1]: significant growth promoting activity
growth of dermal papilla cells [1]: promote the growth
IC50 [2, 4]: < 1 µM
WNT-5A mRNA amount / expression in dermal papilla cells [2]: effectively inhibit
IC50 ([2]; 24 hours): 0.5 µM
IC50 [3]: 80 µM

C[C@@H]1C[C@@H]2O[C@H]2/C=C\C=C\[C@H](O)Cc2c(Cl)c(O)cc(O)c2C(=O)O1 [Compound 5]
activity at 1 µM [1]: 110 ± 45%
activity at 4 µM [1]: 175 ± 29.2%
activity at 16 µM [1]: 236 ± 26.4%
IC50 [2, 4]: 3.47 µM
IC50 [3]: > 30 µM

CC(=O)S[C@@H]1/C=C/CC(=O)Cc2c(Cl)c(O)cc(O)c2C(=O)O[C@H](C)C[C@@H]2O[C@H]21 [Compound 54]
activity at 1 µM [1]: 80 ± 2.4%
activity at 4 µM [1]: 97.1 ± 5.6%
activity at 16 µM [1]: 135 ± 0.9%
IC50 [2, 4]: 2.37 µM
IC50 [3]: > 30 µM

CC(=O)S[C@@H]1/C=C\CC(=O)Cc2c(Cl)c(O)cc(O)c2C(=O)O[C@H](C)C[C@@H]2O[C@H]21 [Compound 55]
activity at 1 µM [1]: 89 ± 1.8%
activity at 4 µM [1]: 127 ± 7.2%
activity at 16 µM [1]: 176 ± 9.8%
IC50 [2, 4]: 0.74 µM
IC50 [3]: > 30 µM

C[C@@H]1C[C@H](OC=O)[C@@H](Cl)/C=C\C=C\C(=O)Cc2c(Cl)c(O)cc(O)c2C(=O)O1 [Compound 18]
activity at 1 µM [1]: 116 ± 9%
activity at 4 µM [1]: 147 ± 11.3%
activity at 16 µM [1]: 211 ± 25.9%
growth promoting activity on dermal papilla cells [1]: significant growth promoting activity
IC50 [2, 4]: < 1 µM
IC50 ([2]; 24 hours): 0.63 µM
IC50 [3]: 6.58 µM

C[C@@H]1C[C@@H]2O[C@H]2[C@H](Sc2ccccc2)/C=C/CC(=O)Cc2c(Cl)c(O)cc(O)c2C(=O)O1 [Compound 53]
activity at 1 µM [1]: 127 ± 14.3%
activity at 4 µM [1]: 150 ± 12.8%
activity at 16 µM [1]: 184 ± 3.6%
growth promoting activity on dermal papilla cells [1]: significant growth promoting activity
growth of dermal papilla cells [1]: promote the growth
WNT-5A mRNA amount / expression in dermal papilla cells [2]: effectively inhibit
IC50 [3]: 45.5 µM

O=C1c2no[n+]([O-])c2CCC1NO (stereo not shown) [Compound 24]
activity at 1 µM [1]: 108 ± 6.9%
activity at 4 µM [1]: 104 ± 10.5%
activity at 16 µM [1]: 120 ± 3.7%
growth of dermal papilla cells [1]: excellent effect of promoting the growth
IC50 ([2]; Human dermal papilla cell, 24 hours): 4.74 µM
IC50 [3]: 21.1 µM

CC1C/C=C/C(O)C/C=C/C(=O)Cc2cc(O)cc(O)c2C(=O)O1 (stereo not shown) [Compound 68]
IC50 [2, 4]: 10.7 µM
IC50 [3]: 50.6 µM

CC1C/C=C/C(O)C/C=C/C(=O)Cc2c(Cl)c(O)cc(O)c2C(=O)O1 (stereo not shown) [Compound 65]
activity at 1 µM [1]: 92.1 ± 6.7%
activity at 4 µM [1]: 87.6 ± 8.7%
activity at 16 µM [1]: 141 ± 5.3%
IC50 [2, 4]: 8.28 µM
IC50 [3]: 109 µM

C[C@@H]1C[C@@H]2O[C@H]2CCCCC(=O)Cc2c(Cl)c(O)cc(O)c2C(=O)O1 [Compound 4]
activity at 1 µM [1]: 97.4 ± 24.4%
activity at 4 µM [1]: 148 ± 4.9%
activity at 16 µM [1]: 180 ± 6.9%
IC50 [2, 4]: 3.46 µM
IC50 [3]: > 30 µM

C[C@@H]1C[C@@H]2O[C@H]2/C=C\C=C\C(=O)Cc2c(Cl)c(O)cc(O)c2C(=O)O1 [Compound 1, Radicicol]
activity at 1 µM [1]: 133 ± 11.6%
activity at 4 µM [1]: 184 ± 12.1%
activity at 16 µM [1]: 145 ± 13%
growth promoting activity on dermal papilla cells [1]: significant growth promoting activity
IC50 [3]: 28.2 µM

COc1cc(O)c2c(c1)/C=C/CC(O)C(O)C(=O)/C=C\CC(C)OC2=O (stereo not shown) [Compound 79]
activity at 1 µM [1]: 87.5 ± 9.9%
activity at 4 µM [1]: 98.6 ± 3.6%
activity at 16 µM [1]: 120 ± 4.1%
growth of dermal papilla cells [1]: excellent effect of promoting the growth
IC50 [2, 4]: 0.9 µM
IC50 [3]: 38.2 µM
